| Compound | logP |
| --- | --- |
| CN(Cc1cccc(C(F)(F)F)c1)N=O | 1.99 |
| CN(Cc1ccc(Cl)cc1)N=O | 2.19 |
| Cc1cccc(CN(C)N=O)c1 | 1.96 |
| CN(Cc1cccc([N+](=O)[O-])c1)N=O | 1.17 |
| CN(Cc1ccccc1)N=O | 1.55 |
| CN(Cc1ccc([N+](=O)[O-])cc1)N=O | 0.82 |
| COc1cccc(CN(C)N=O)c1 | 1.6 |
| CN(Cc1ccc(F)cc1)N=O | 1.67 |
| CN(Cc1cccc(Cl)c1)N=O | 1.46 |
| Cc1ccc(CN(C)N=O)cc1 | 2.14 |

— the OPERA property sets (Mansouri et al. 2018)
